Article PMC4109836, “Analysis of the co-operative interaction between the allosterically regulated proteins GK and GKRP using tryptophan fluorescence” (Biochemical Journal, 2014)
Where two headings read alike, the source gives them in different places.

Legend:
[1] = target: T1, GKRP-WT (Homo sapiens, UniProt Q14397); test: Ligand binding to free GKRP-WT measured by TF of GKRP; conditions: ligand alone
T1 construct: FLAG; made in house; host or cells: Escherichia coli
T1 sequence (Q14397 1-625): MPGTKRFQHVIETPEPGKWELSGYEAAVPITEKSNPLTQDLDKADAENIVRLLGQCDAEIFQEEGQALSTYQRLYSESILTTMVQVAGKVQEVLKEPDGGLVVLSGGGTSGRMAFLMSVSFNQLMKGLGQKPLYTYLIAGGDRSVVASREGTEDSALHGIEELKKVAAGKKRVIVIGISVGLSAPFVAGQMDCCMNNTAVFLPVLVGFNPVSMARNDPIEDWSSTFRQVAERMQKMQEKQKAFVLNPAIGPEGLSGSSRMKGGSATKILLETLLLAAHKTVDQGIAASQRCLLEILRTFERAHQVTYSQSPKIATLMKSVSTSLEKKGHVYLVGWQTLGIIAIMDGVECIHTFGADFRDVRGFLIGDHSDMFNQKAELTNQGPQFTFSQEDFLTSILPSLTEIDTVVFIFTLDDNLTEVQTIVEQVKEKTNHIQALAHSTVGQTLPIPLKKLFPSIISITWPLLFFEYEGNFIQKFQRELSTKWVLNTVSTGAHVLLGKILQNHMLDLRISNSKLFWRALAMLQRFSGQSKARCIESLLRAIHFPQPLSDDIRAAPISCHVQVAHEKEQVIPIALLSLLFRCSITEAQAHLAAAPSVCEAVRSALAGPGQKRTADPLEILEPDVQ

[2] = target: T2, GKRP-P446L (Homo sapiens, UniProt Q14397, P446L); test: Ligand binding to free GKRP-P446L measured by TF of GKRP; conditions: ligand alone
T2 construct: FLAG; made in house; host or cells: Escherichia coli
T2 sequence (Q14397 1-625 P446L): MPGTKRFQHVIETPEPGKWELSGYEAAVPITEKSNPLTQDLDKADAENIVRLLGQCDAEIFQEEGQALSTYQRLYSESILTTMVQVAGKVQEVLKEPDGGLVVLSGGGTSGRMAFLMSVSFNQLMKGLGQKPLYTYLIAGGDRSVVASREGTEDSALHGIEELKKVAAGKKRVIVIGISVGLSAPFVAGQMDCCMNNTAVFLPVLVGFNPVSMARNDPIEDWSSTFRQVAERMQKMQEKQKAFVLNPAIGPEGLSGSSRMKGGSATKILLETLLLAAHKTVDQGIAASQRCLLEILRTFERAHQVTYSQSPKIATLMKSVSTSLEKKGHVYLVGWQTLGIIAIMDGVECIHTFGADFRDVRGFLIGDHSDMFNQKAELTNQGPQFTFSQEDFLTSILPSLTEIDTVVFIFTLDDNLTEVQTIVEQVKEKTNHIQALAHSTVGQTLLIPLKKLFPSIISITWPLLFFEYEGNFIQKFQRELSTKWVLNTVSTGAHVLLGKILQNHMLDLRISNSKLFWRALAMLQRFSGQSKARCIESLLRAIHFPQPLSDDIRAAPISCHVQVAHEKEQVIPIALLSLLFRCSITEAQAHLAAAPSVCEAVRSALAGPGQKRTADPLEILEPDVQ

[3] = target: T3, GKRP-P446L (Homo sapiens, UniProt P35557+Q14397, P446L/W167F/W257F/W99R); test: Titration of GKRP-P446L with GK-W99R/W167F/W257F (GK–GKRP complex assembly) by TF; assay type: binding; conditions: saturating levels of F6P
T3 construct: FLAG; GST (cleaved yes); made in house; host or cells: Escherichia coli
T3 sequence (Q14397 1-625 P446L): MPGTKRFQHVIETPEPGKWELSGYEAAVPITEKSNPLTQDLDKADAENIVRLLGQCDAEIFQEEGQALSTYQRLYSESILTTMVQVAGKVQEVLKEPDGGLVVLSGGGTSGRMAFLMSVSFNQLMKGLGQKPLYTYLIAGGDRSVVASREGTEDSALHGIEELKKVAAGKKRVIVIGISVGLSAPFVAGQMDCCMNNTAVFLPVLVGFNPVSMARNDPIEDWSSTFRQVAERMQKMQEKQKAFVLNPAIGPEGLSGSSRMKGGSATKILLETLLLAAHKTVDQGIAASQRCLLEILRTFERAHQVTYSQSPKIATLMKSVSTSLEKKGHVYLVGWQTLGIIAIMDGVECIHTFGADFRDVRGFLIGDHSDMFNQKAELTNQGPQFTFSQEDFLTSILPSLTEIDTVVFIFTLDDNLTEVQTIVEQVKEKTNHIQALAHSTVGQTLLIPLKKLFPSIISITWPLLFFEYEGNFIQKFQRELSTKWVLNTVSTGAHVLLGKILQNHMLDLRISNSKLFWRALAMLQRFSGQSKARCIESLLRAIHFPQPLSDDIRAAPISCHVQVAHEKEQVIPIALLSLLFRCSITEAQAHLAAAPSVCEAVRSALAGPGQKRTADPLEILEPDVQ
T3 sequence (P35557 1-465 W99R/W167F/W257F): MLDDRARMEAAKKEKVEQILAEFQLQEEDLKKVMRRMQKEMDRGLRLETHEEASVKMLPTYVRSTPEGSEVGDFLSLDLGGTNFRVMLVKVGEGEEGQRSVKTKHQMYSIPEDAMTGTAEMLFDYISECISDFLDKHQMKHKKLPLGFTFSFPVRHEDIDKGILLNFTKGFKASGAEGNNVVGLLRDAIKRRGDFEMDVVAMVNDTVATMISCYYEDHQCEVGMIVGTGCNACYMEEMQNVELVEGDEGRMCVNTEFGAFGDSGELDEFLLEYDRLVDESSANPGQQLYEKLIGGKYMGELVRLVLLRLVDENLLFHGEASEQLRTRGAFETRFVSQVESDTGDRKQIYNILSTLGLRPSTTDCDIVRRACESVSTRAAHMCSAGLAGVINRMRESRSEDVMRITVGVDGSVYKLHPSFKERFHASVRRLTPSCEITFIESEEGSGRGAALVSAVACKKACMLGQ
Protocol: Spectra were measured with a Fluorolog-3-21 Jobin-Yvon Spex Instrument SA equipped with a 450 W Xenon lamp for excitation and a cooled R2658P Hamamatsu photomultiplier tube for detection. For all measurements, 90° geometry was employed and 295 nm excitation wavelengths were used to observe fluorescence emission in the 300–500 nm range. For TF, spectra slit width was set to provide a bandpath of 3 nm for excitation and 3 nm for emission. Spectra were corrected for instrumental response using Spex instrument software. A thermostatically controlled cell holder maintained sample temperature at 20°C. A thermocoupler was used to measure sample temperature. The buffer used contained 20 mM phosphate, 50 mM KCl, 1 mM EDTA and 1 mM DTT (pH 7.2).
Fluorescence data were obtained via the stepwise addition of the appropriate amount of non-fluorescent GK-W99R/W167F/W257F to GKRP in a fluorescence cuvette. […] The change in GKRP protein fluorescence during titration was also measured using time-dependent scans. A manual procedure was used such that a typical titration with 10–12 additions required 20–25 min to perform. The same buffer as described above was routinely used unless stated otherwise. The bandpath was 0.5 nm at 295 nm for excitation and 12 nm at 340 nm for emission. […] For some graphical presentations the linear form of the Hill equation was used: log[F/(Fsat−F)]=H log x−H log KD [46].

[4] = target: T4, GKRP-WT (Homo sapiens, UniProt P35557+Q14397, W167F/W257F/W99R); test: Titration of GKRP-WT with GK-W99R/W167F/W257F (GK–GKRP complex assembly) by TF; assay type: binding; conditions: saturating levels of F6P;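 note: tryptophan fluorescence of GKRP titrated with GK, excitation 295 nm, emission read at 340 nm, phosphate buffer pH 7.2, Hill equation fitting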
T4 construct: FLAG; GST (cleaved yes); made in house; host or cells: Escherichia coli
T4 sequence (Q14397 1-625): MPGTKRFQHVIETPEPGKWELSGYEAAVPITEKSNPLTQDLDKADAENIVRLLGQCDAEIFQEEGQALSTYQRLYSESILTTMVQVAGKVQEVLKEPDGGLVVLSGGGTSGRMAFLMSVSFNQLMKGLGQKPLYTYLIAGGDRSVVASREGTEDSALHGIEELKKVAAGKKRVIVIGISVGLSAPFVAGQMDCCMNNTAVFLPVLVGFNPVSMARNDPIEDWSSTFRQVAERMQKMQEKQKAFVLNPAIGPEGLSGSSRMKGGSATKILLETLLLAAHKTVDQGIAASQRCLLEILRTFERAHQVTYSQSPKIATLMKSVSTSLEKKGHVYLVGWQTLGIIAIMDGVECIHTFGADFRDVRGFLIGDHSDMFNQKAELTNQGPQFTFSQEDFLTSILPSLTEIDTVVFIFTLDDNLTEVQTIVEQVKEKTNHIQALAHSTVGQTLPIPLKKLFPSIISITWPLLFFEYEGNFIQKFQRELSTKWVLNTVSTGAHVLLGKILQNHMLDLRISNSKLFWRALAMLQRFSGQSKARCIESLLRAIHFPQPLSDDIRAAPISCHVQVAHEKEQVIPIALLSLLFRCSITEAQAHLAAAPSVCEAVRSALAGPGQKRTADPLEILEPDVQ
T4 sequence (P35557 1-465 W99R/W167F/W257F): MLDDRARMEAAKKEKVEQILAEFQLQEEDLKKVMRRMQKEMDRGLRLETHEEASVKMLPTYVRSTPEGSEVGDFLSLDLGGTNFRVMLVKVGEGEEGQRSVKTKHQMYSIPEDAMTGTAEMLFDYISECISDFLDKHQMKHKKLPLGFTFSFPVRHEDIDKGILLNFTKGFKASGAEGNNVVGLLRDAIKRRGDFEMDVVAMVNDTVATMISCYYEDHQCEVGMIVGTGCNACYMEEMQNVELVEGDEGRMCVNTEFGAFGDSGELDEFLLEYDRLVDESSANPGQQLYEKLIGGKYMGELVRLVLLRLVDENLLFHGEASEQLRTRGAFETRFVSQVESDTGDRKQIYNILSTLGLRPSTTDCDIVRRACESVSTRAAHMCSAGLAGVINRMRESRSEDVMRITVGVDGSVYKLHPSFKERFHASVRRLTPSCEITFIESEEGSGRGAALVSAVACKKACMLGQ

[5] = target: T5, GK-WT (Homo sapiens, UniProt P35557); design: method as in ref 18 (a number printed in a supplementary file, which may have a reference list of its own: not looked up in the article's list); conditions: read-out: Kd for MH, cited from earlier work
T5 construct: GST (cleaved yes); made in house; host or cells: Escherichia coli
T5 sequence (P35557 1-465): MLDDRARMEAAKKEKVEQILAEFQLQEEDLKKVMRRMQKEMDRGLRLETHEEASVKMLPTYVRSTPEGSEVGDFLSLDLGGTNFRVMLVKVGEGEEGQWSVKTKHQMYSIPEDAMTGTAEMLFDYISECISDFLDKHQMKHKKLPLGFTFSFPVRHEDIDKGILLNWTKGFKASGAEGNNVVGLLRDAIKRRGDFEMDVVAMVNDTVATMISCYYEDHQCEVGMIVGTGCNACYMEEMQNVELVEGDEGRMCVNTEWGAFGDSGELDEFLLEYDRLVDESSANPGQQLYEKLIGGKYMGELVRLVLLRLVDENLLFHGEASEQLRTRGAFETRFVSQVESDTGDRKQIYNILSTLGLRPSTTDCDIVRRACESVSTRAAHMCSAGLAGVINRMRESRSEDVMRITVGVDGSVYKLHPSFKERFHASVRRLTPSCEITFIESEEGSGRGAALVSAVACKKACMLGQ

[6] = Structural stability from urea denaturation curves (TF); assay type: physicochemical, human; conditions: buffer pH 7.2, 20°C; ±0.05

Molecule: O=C(CO)[C@@H](O)[C@H](O)[C@H](O)COP(=O)([O-])[O-].[Na+].[Na+] [F6P, D-fructose 6-phosphate disodium salt]
- H (Hill number) ([1]; 0.3 μM GKRP-WT, 20°C): 3.6
- ΔF (relative fluorescence change at 340 nm) ([1]; 0.3 μM GKRP-WT, 20°C): 0.04
- Kd ([1]; 0.3 μM GKRP-WT, 20°C, read-out: S0.5): 278 µM
- effect on the TF signal of GKRP-WT [1]: increase
- H (Hill number) ([2]; 0.3 μM GKRP-P446L, 20°C): 2.94
- ΔF (relative fluorescence change at 340 nm) ([2]; 0.3 μM GKRP-P446L, 20°C): 0.07
- Kd ([2]; 0.3 μM GKRP-P446L, 20°C, read-out: S0.5): 242 µM
- effect on the TF signal of GKRP-P446L [2]: increase
- effect on the binding of GKRP-P446L to GK [3]: increased the affinity of GKRP-P446L for GK
- effect on the binding of GKRP-WT to GK [4]: no significant effect

Molecule: O=C(CO)[C@@H](O)[C@@H](O)[C@H](O)[C@H](O)CO [MH, D-mannoheptulose]
- Kd ([5]; in the presence of GKA (20 μM)): 1000 µM
- Kd ([5]; without GKA): 17000 µM

B1: GKRP-WT: recombinant human wild-type GK regulatory protein (protein)
chain: MPGTKRFQHVIETPEPGKWELSGYEAAVPITEKSNPLTQDLDKADAENIVRLLGQCDAEIFQEEGQALSTYQRLYSESILTTMVQVAGKVQEVLKEPDGGLVVLSGGGTSGRMAFLMSVSFNQLMKGLGQKPLYTYLIAGGDRSVVASREGTEDSALHGIEELKKVAAGKKRVIVIGISVGLSAPFVAGQMDCCMNNTAVFLPVLVGFNPVSMARNDPIEDWSSTFRQVAERMQKMQEKQKAFVLNPAIGPEGLSGSSRMKGGSATKILLETLLLAAHKTVDQGIAASQRCLLEILRTFERAHQVTYSQSPKIATLMKSVSTSLEKKGHVYLVGWQTLGIIAIMDGVECIHTFGADFRDVRGFLIGDHSDMFNQKAELTNQGPQFTFSQEDFLTSILPSLTEIDTVVFIFTLDDNLTEVQTIVEQVKEKTNHIQALAHSTVGQTLPIPLKKLFPSIISITWPLLFFEYEGNFIQKFQRELSTKWVLNTVSTGAHVLLGKILQNHMLDLRISNSKLFWRALAMLQRFSGQSKARCIESLLRAIHFPQPLSDDIRAAPISCHVQVAHEKEQVIPIALLSLLFRCSITEAQAHLAAAPSVCEAVRSALAGPGQKRTADPLEILEPDVQ
modifications: left off: FLAG, end not stated, state not stated
notes: recombinant human wild-type GK regulatory protein
- ΔG(H2O) from urea denaturation curves [6]: 1.56 kcal/mol
